Where two headings read alike, the source gives them in different places.

Results on 1 compound are retold here after patent US20090306149A1, “USE OF BIARYLCARBOXAMIES IN THE TREATMENT OF HEDGEHOG PATHWAY-RELATED DISORDERS” (priority 2006, published 2009).

The test system of assay [1] is gli-luciferase activity (Hh pathway) in TMHh12 cells. In words: "IC50 shift" gli-luciferase reporter assay in TMHh12 cells with a small molecule Smo agonist. It is filed as cell-based, mouse. As to conditions: Mus musculus, TMHh12, TMHh12 cells. On the procedure: (§1) TM3 cells (mouse) transfected with a new proprietary reporter construct (pTA-8xGli-Luc). The pTA-8xGli-Luc reporter produces approx. 4 fold more luciferase activity than classical 8xGli-LUC. A highly responsive stable clone has been selected (TMHh12) with >10-fold signal/noise ratio and <10% CV in 384 well format.
“IC50 shift” assays in TMHh12 cells. IC50 for antagonism of gli-luciferase activity was tested in the presence of increasing concentrations of a small molecule agonist which binds to Smo with 1 nM affinity and activates the Hh pathway.
Table 1 lists the IC50 of antagonists determined in the presence of different (1 nM and 25 nM) concentrations of a small agonist of Smoothened.
(In general: A reporter such as luciferase makes a cellular process visible.)

Assay [2] addresses Smoothened (Homo sapiens, UniProt Q99835). Nature of the assay: Smo binding assay, displacement of a small molecule agonist of Smoothened, filter binding format. The source says:
A Smo binding assay was developed using radio-labeled smoothened agonist for compound competition.
Table 1, infra; lists the IC50 for displacement of a small molecule agonist of Smoothened determined in a filter binding format.

Assay [3] deals with Shh-mediated pathway activation (Gli-luciferase activity of TMHh12 cells). Nature of the assay: Gli-Luc reporter assay for Hh pathway inhibition in TMHh12 cells in the presence of Shh protein. It is filed as cell-based. As to conditions: Mus musculus, read-out: EC50 to block Shh-mediated pathway activation. On the procedure: as §1
Gli-Luc Reporter Assay for Hh Pathway Inhibition
Gli-luciferase activity of TMHh12 cells was determined in the presence of Shh protein.

Sequence of Smoothened (Q99835 28-787): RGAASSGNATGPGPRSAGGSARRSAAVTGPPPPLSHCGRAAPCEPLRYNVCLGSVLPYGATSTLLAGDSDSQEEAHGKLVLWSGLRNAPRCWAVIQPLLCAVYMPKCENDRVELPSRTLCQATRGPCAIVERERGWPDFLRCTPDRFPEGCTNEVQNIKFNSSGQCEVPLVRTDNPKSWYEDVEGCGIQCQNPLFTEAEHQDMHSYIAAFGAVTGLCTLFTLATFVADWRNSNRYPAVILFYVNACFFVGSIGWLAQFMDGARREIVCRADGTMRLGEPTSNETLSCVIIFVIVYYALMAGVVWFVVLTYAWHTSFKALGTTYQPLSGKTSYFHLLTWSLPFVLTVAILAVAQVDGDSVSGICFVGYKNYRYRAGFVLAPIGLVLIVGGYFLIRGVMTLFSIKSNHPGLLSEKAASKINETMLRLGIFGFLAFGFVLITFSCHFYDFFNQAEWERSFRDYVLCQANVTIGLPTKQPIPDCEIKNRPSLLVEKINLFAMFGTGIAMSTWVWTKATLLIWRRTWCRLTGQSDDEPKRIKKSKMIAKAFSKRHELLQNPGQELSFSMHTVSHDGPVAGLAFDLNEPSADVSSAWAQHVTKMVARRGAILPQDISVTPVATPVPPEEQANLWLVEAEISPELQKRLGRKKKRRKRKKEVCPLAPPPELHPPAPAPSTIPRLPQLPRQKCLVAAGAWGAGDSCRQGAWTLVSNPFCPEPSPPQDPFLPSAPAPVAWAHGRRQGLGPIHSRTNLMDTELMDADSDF

What is called IC50 is the concentration needed to halve the response being measured. One may read the EC50 as the concentration giving half of the maximal effect. As to `Cc1cccc(C(=O)Nc2ccc3c(c2)C[C@@H](NCc2ccccn2)C3)c1-c1ccc(C(F)(F)F)cc1` [Example 6, 6-Methyl-4′-trifluoromethyl-biphenyl-2-carboxylic acid {(S)-2-[(pyridin-2-ylmethyl)-amino]-indan-5-yl}-amide], the IC50 stood at 0.019 µM in assay [1] (1 nM small molecule Smo agonist, read-out: Gli_luc (1 nM Smo agonist) IC50); 0.279 µM in assay [1] (25 nM small molecule Smo agonist, read-out: Gli_luc (25 nM Smo agonist) IC50); 0.015 µM in assay [2]. The EC50 in assay [3] was found to be 0.0094 µM.
